The nature of series [1]: Inhibition of PKA.
Series [2] concerns the target RAC-alpha serine/threonine-protein kinase (Homo sapiens) (UniProt P31749). Description: Inhibition of AKT at 5 uM.
Series [3] can be described thus: Inhibition of p38 at 5 uM.
The target of series [4] is Mitogen-activated protein kinase 10 (Homo sapiens) (UniProt P53779). Description: Inhibition of JNK3 at 5 uM.
For series [5], the target named is Serine/threonine-protein kinase MRCK alpha (Homo sapiens) (UniProt Q5VT25). Description: Inhibition of MRCKalpha at 5 uM.
The target of series [6] is Rho-associated protein kinase 1 (Homo sapiens, UniProt Q13464). Description: Inhibition of ROCK1.
In series [7] the target is Rho-associated protein kinase 2 (Homo sapiens, UniProt O75116). The series is described as follows: Inhibition of ROCK2.
Series [8] can be described thus: Aqueous solubility of compound at pH 5.5. The series is classed as physicochemical. The note with it: buffer.
Series [9] can be described thus: Aqueous solubility of compound at pH 7.4. The following applies: buffer. The format is physicochemical.
A further series concerns the target CYP2C9 (Homo sapiens, UniProt P11712). Description: Inhibition of CYP2C9 at 10 uM. The format is ADME.
Another series deals with CYP2D6 (Homo sapiens, UniProt P10635). Description: Inhibition of CYP2D6 at 10 uM. The series is classed as ADME.
The target in the next series is T1, CYP1A2 (Homo sapiens, UniProt P05177).
T1 sequence (P05177 whole entry): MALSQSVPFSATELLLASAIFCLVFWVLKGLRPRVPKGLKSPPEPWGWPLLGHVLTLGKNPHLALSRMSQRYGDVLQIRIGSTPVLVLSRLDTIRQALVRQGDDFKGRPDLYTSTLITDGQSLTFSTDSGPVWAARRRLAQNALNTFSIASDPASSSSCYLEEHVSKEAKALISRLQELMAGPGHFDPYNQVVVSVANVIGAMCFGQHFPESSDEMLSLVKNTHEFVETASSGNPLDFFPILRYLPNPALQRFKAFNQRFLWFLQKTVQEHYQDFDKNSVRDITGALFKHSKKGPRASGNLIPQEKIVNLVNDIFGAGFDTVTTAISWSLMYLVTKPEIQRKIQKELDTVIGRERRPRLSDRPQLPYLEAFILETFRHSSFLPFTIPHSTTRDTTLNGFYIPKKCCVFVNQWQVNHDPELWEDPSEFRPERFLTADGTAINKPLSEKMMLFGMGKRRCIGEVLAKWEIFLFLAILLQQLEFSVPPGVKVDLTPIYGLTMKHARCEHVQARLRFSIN
Description: Inhibition of CYP1A2 at 10 uM. The format is ADME.

A short description of series [10]: Half life in human liver microsomes. The series is classed as ADME, Microsome. For orientation: Microsomes from liver hold many membrane-bound enzymes, among them those of drug oxidation.
The next series deals with CYP3A4 (Homo sapiens, UniProt P08684). Description: Inhibition of CYP3A4 at 10 uM. The format is ADME.
Series [11] in a line: Inhibition of myosin light chain bisphosphorylation by cell-based assay.
Series [12] in a line: AUC in rat at 2 mg/kg, po. The series is classed as ADME, organism-based. On the set-up: dose 2 mg/kg, route oral. The note with it: plasma.
Series [13] can be described thus: Cmax in rat at 2 mg/kg, po. The format is ADME, organism-based. On the set-up: dose 2 mg/kg, route oral. The note with it: in vivo.
Series [14] can be described thus: Half life in rat at 1 mg/kg, iv or 2 mg/kg, po. The series is classed as ADME, organism-based. The following applies: in vivo.
A short description of series [15]: Oral bioavailability in rat at 2 mg/kg. The series is classed as ADME, organism-based. The following applies: in vivo.
A short description of series [16]: Clearance in rat at 1 mg/kg, iv or 2 mg/kg, po. The note with it: in vivo. The format is ADME, organism-based.
Series [17] is described as follows: AUC in rat at 1 mg/kg, iv. The series is classed as ADME, organism-based. The note with it: plasma. On the set-up: dose 1 mg/kg, route intravenous.
A short description of series [18]: Volume of distribution at steady state in rat at 1 mg/kg, iv or 2 mg/kg, po. The format is ADME, organism-based. The note with it: in vivo, read-out: Vdss.

≈ marks a conversion by molar mass, not a printed value. Calls of active or inactive are those of the source. The calls are words filed in the database; no cut-off is given here.

CYP2C9, sequence (P11712 whole entry): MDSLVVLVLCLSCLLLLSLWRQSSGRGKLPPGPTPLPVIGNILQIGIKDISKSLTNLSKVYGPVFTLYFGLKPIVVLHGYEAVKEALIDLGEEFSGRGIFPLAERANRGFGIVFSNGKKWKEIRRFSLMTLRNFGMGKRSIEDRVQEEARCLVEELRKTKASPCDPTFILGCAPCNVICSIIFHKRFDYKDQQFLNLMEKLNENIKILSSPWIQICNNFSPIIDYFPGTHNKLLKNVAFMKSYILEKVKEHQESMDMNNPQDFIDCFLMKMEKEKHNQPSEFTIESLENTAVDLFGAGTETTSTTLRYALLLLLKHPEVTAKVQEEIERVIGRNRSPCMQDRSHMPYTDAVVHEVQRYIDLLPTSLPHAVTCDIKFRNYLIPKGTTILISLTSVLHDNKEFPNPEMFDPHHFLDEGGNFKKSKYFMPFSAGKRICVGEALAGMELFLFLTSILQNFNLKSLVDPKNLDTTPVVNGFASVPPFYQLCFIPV
Rho-associated protein kinase 1, sequence (Q13464 whole entry): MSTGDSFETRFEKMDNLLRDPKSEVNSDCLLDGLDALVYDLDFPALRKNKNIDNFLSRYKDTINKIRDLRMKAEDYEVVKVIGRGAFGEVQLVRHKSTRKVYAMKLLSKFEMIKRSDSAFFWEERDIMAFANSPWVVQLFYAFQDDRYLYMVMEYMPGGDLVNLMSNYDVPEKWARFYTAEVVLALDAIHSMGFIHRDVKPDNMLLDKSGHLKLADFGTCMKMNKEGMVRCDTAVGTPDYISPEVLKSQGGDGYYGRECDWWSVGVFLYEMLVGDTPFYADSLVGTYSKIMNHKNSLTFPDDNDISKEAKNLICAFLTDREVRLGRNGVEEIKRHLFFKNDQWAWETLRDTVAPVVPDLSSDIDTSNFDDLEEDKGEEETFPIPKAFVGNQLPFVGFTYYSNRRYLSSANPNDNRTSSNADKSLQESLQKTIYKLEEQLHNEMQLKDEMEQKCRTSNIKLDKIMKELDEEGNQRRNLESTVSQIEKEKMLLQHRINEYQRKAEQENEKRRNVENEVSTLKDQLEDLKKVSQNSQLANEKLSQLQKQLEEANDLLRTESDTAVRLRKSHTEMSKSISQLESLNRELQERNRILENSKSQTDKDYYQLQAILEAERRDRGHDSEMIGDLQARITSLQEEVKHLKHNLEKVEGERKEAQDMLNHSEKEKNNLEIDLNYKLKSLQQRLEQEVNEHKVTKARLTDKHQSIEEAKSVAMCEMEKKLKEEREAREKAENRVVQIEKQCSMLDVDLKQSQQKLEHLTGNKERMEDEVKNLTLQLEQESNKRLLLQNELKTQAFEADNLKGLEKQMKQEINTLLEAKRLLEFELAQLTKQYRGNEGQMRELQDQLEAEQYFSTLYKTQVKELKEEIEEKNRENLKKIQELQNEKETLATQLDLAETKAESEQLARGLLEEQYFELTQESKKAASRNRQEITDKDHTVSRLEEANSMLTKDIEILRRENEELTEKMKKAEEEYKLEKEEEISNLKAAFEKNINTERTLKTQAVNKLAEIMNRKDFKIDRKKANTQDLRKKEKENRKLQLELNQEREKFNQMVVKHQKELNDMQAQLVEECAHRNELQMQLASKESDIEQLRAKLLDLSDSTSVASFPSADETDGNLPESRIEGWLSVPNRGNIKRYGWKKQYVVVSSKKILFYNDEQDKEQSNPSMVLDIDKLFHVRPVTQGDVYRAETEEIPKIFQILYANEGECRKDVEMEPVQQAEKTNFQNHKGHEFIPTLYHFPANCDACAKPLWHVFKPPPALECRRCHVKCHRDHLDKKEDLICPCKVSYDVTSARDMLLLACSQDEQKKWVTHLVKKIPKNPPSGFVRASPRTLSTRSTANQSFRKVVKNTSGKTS
CYP2D6, sequence (P10635 whole entry): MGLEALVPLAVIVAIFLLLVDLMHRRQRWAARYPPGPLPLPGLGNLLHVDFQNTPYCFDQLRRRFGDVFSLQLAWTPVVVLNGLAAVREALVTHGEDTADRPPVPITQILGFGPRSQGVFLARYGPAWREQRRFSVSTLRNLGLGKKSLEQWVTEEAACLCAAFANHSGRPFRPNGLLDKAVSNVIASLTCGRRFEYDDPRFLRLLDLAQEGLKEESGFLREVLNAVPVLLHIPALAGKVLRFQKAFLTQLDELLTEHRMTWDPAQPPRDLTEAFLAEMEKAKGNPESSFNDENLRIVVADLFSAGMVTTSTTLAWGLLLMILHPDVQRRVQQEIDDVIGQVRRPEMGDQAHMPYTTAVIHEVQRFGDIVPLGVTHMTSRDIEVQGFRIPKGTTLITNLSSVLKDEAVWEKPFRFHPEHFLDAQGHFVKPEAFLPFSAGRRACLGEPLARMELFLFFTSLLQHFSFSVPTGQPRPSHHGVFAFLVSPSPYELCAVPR
CYP3A4, sequence (P08684 whole entry): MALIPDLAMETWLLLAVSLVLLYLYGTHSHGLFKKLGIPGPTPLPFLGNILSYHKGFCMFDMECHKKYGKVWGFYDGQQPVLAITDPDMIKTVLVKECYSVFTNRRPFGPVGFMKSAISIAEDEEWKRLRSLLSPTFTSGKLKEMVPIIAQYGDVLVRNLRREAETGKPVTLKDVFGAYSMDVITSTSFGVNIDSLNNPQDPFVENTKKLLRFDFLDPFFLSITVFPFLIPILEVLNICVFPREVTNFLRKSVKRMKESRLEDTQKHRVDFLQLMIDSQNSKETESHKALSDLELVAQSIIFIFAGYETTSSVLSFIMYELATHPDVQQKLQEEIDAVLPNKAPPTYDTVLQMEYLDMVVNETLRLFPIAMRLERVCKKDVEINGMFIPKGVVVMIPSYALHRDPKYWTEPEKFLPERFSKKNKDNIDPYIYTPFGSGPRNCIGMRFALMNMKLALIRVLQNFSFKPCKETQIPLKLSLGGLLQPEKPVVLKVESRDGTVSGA
Rho-associated protein kinase 2, sequence (O75116 whole entry): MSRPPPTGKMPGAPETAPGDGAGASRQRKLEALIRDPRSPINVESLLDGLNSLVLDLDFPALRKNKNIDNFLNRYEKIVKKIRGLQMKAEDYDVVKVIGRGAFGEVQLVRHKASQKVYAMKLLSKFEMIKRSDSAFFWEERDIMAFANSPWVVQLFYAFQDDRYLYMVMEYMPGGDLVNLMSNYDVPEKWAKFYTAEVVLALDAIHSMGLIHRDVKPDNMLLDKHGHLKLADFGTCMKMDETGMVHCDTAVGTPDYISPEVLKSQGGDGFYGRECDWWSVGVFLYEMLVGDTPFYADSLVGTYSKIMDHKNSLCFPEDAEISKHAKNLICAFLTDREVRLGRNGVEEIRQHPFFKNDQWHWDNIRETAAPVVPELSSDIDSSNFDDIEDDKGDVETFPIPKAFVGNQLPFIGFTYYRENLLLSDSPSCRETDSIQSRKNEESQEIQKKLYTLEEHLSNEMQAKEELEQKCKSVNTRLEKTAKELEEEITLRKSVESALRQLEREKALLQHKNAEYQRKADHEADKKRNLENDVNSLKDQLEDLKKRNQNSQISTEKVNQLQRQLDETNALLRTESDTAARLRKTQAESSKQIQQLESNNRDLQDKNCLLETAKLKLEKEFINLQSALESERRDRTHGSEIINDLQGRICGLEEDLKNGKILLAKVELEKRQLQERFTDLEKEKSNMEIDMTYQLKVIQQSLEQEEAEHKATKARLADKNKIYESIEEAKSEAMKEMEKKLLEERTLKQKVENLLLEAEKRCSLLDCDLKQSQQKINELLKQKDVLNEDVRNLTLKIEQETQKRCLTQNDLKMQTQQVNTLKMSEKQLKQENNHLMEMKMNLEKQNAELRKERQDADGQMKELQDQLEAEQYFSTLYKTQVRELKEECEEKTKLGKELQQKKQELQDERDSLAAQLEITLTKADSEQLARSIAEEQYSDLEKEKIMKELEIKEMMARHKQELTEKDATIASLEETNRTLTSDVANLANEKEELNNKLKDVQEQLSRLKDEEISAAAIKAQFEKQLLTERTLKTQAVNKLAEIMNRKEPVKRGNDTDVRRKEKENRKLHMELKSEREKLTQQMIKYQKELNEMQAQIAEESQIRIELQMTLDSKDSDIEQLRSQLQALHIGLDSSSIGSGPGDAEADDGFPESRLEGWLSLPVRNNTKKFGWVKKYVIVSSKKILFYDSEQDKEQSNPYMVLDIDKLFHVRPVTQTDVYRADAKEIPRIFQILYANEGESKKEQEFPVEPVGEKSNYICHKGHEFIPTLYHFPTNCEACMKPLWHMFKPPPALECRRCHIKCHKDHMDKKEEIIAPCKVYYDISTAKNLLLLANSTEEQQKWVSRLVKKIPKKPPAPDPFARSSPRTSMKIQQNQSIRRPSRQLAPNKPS
RAC-alpha serine/threonine-protein kinase (Homo sapiens), sequence (P31749 whole entry): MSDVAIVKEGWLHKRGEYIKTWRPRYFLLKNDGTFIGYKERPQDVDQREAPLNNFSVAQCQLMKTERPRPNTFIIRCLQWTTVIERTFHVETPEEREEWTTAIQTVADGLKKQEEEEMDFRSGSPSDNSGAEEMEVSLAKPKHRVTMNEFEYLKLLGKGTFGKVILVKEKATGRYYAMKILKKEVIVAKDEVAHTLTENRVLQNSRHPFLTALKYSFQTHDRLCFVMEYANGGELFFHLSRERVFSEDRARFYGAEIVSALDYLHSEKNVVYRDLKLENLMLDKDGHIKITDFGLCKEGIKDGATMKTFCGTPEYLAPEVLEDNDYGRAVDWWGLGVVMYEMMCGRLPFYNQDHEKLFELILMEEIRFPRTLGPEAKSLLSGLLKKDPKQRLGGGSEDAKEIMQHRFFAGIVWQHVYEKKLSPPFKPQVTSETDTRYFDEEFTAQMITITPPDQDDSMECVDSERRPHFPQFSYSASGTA

In general, IC50 refers to the concentration that inhibits the measured activity by half. One may read the inhibition as the change of the read-out against control, counted positive when it falls. With `COc1cccc(CNC(=O)c2cc3ccc(-c4cn[nH]c4)nc3n2CCCO)c1`, the IC50 in [1] is 5800 nM; in series [6], 88 nM; in series [7], 24 nM. Besides, the inhibition result in series [2], in series [3], in [4] and in [5] was “inactive” in each case.
Broadly, the solubility is the concentration that dissolves in the medium under given conditions. A higher solubility goes with a readily soluble substance. The molecule `COc1cccc(CNC(=O)c2cc3ccc(-c4cn[nH]c4)cc3[nH]2)c1` showed an IC50 in series [1] of 6700 nM. For the same molecule, the solubility in series [8] and in series [9] was no more than 0.01 µM in each case.
As for `COc1cccc(CNC(=O)c2c[nH]c3cc(-c4cn[nH]c4)ccc23)c1`, in series [1], it took 510 nM to reach half-maximal inhibition (IC50). The solubility in series [8] and in series [9] was no more than 0.01 µM in each case.
The term half-life denotes the time in which the quantity being followed falls by half. Read a low half-life as fast loss. `COc1cccc(CNC(=O)c2cc3ccc(-c4cn[nH]c4)nc3n2CCN(C)C)c1`: the IC50 was 3670 nM in series [1], 243 nM in series [6] and 43 nM in series [7]. In addition, the inhibition result in series [2], in [3], in [4] and in series [5] was “inactive” each time. Moreover, the inhibition at 10 µM was 46% on CYP2C9, 55% at CYP2D6, 26% on CYP1A2 and 65% at CYP3A4. The half-life in series [10] was 17 min.
For orientation: AUC means the area under the concentration-time curve, a measure of exposure. As usually defined, the Cmax is the highest concentration seen after dosing. As a reminder, the bioavailability is the share of a dose that reaches the circulation, judged against a reference dose that is usually intravenous. With `COc1cccc(CNC(=O)c2cc3ccc(-c4cn[nH]c4)nc3n2C)c1`, the IC50 in [11] was 25 nM; in series [1], 150 nM; in series [6], 2 nM; in [7], less than 1 nM. The exposure (AUC) in series [12] is 7.9 µM·h; in [17], 11.5 µM·h. The Cmax in series [13] was 1190 nM. The results for the half-life in series [14] and in [10] were 108 min and 68 min, respectively. Further, the inhibition at 10 µM against CYP2C9 turned out to be 76%; against CYP2D6, 48%; at CYP1A2, 1%; on CYP3A4, 40%. The bioavailability in [15] is 35%. Moreover, the clearance in [16] came to 4 mL/min/kg. For the same molecule, the Vd in series [18] was 0.5 L/kg.
For the molecule `COc1cccc(CNC(=O)c2[nH]c3cc(-c4cn[nH]c4)ccc3c2CN2CCOCC2)c1`, the IC50 in series [11] was found to be 130 nM; in series [1] it was 18000 nM; in [6], 40 nM; in series [7] it was 3 nM. The half-life in [14] is 84 min; in [10], 8 min. Also, the inhibition at 10 µM is 86% at CYP2C9, 70% against CYP2D6, 46% at CYP1A2 and 86% against CYP3A4. For the same molecule, the bioavailability in series [15] worked out at 0%. This molecule also had a clearance in [16] of 32 mL/min/kg. In series [17], this molecule gave an AUC of 1.2 µM·h. Further, in series [18], the Vd was found to be 2 L/kg.
Consider `COc1cccc(CNC(=O)c2cn(CCN3CCCC3)c3nc(-c4cn[nH]c4)ccc23)c1`, for which the IC50 in series [1] is greater than 20000 nM; in series [6], 89 nM; in series [7] it was 8 nM. The half-life in series [14] is 90 min; in series [10], 21 min. The inhibition at 10 µM at CYP2C9 is 51%; on CYP2D6 it was 69%; against CYP1A2 it was 9%; against CYP3A4, 44%. In addition, in series [15], the bioavailability turned out to be 0%. The molecule also registered a clearance in series [16] of 114 mL/min/kg. The same molecule showed an AUC in [17] of 0.3 µM·h. Further, the Vd in series [18] worked out at 10 L/kg.
In the case of `COc1cccc(CN(C(=O)c2cc3ccc(-c4cn[nH]c4)nc3[nH]2)C2CC2)c1`, the IC50 is 1700 nM in series [1], 33 nM in [6] and 8 nM in series [7]. Also, the AUC amounted to 1 µM·h in series [12] and 2.2 µM·h in series [17]. In addition, the Cmax in series [13] was found to be 255 nM. Further, the results for the half-life in [14] and in series [10] were 54 min and 27 min, respectively. Besides, the inhibition at 10 µM was found to be 52% on CYP2C9, 30% at CYP2D6, 16% against CYP1A2 and 40% at CYP3A4. In [15], this molecule gave a bioavailability of 22%. This molecule registered a clearance in [16] of 21 mL/min/kg. Also, in series [18], the Vd was 1.2 L/kg.
With `COc1cccc(CN(CCN(C)C)C(=O)c2cn(C)c3cc(-c4cn[nH]c4)ccc23)c1`, the IC50 was 34 nM in series [11], 2200 nM in series [1], 9 nM in series [6] and 1 nM in series [7]. Besides, the inhibition at 10 µM at CYP2C9 was 62%; on CYP2D6 it was 52%; on CYP1A2 it was 3%; at CYP3A4 it was 36%. The molecule further gave a half-life in series [10] of 8 min.
`COc1cccc(CN(C)C(=O)c2cc3ccc(-c4cn[nH]c4)nc3[nH]2)c1`: the IC50 in series [11] came to 25 nM; in series [1], 570 nM; in series [6] it was 27 nM; in series [7] it was 4 nM. Moreover, the inhibition at 10 µM at CYP2C9 turned out to be 83%; against CYP2D6, 52%; against CYP1A2, 32%; against CYP3A4 it was 27%. Besides, the half-life in [10] amounted to 24 min.
As to `COc1cccc(CNC(=O)c2[nH]c3cc(-c4cn[nH]c4)ccc3c2CN2CCN(C)CC2)c1`, the IC50 in series [11] is 40 nM; in [1] it was 1300 nM; in series [6], 6 nM; in series [7], less than 1 nM. Moreover, the inhibition at 10 µM against CYP2C9 was determined as 75%; against CYP2D6, 86%; against CYP1A2, 62%; against CYP3A4 it was 75%. In series [10], this molecule gave a half-life of 1 min.
Consider `COc1cccc(CNC(=O)c2cn(CCN(C)C)c3cc(-c4cn[nH]c4)ccc23)c1`, for which the IC50 in series [11] is 23 nM; in series [1] it was 7000 nM; in series [6] it was 5 nM; in series [7] it was less than 1 nM. Besides, the AUC in series [12] was 0.02 µM·h; in series [17], 1 µM·h. For the same molecule, the half-life in series [14] is 72 min; in series [10], 20 min. Further, the inhibition at 10 µM on CYP2C9 was 91%; against CYP2D6, 53%; on CYP1A2, -6%; on CYP3A4, 70%. The molecule also registered a bioavailability in series [15] of 1%. Also, the solubility was no less than 100 µM in series [8] and 77 µM (≈ 32100 ng/mL) in [9]. In [16], this molecule yielded a clearance of 42 mL/min/kg. The Vd in [18] was 3.2 L/kg.
